We go through 48 compounds from patent US10508120B2, “TYK2 inhibitors and uses thereof” (Nimbus Lakshmi, Inc., priority 2017, dated 2019).

For the test, the target named is human TYK2 (JH2domain-pseudokinase) (Homo sapiens (Human), UniProt P29597). The test can be described thus: TYK2 JH2 Domain Binding Assay (KINOMEscan). Here is the method: Binding constants for compounds of the present invention against the JH2 domain were determined by the following protocol for a KINOMEscan® assay (DiscoveRx). A fusion protein of a partial length construct of human TYK2 (JH2domain-pseudokinase) (amino acids G556 to D888 based on reference sequence NP_003322.3) and the DNA binding domain of NFkB was expressed in transiently transfected HEK293 cells. From these HEK 293 cells, extracts were prepared in M-PER extraction buffer (Pierce) in the presence of Protease Inhibitor Cocktail Complete (Roche) and Phosphatase Inhibitor Cocktail Set II (Merck) per manufacturers' instructions. The TYK2 (JH2domain-pseudokinase) fusion protein was labeled with a chimeric double-stranded DNA tag containing the NFkB binding site (5′-[…]-3′) fused to an amplicon for qPCR readout, which was added directly to the expression extract (the final concentration of DNA-tag in the binding reaction is 0.1 nM).
Sequence of human TYK2 (JH2domain-pseudokinase) (P29597 556-888): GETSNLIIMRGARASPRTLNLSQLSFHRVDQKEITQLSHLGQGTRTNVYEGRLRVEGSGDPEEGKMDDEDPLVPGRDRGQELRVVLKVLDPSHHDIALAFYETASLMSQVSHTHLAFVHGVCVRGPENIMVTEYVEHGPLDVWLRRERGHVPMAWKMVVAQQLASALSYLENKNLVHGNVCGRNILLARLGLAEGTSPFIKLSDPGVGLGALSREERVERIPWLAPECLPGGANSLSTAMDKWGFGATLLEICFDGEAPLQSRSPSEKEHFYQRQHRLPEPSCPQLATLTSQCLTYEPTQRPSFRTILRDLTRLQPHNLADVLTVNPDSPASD
The liganded beads were blocked with excess biotin and washed with blocking buffer (SeaBlock (Pierce), 1% BSA, 0.05% Tween 20, 1 mM DTT) to remove unbound ligand and to reduce nonspecific binding.
Extracts were used directly in binding assays without any enzyme purification steps at a ≥10,000-fold overall stock dilution (final DNA-tagged enzyme concentration <0.1 nM). Extracts were loaded with DNA-tag and diluted into the binding reaction in a two step process. First extracts were diluted 1:100 in 1× binding buffer (PBS/0.05% Tween 20/10 mM DTT/0.1% BSA/2 μg/ml sonicated salmon sperm DNA) containing 10 nM DNA-tag. This dilution was allowed to equilibrate at room temperature for 15 minutes and then subsequently diluted 1:100 in 1× binding buffer. […] Kds were determined using an 11-point 3-fold compound dilution series with three DMSO control points. […] The compounds were then diluted directly into the assays such that the final concentration of DMSO was 0.9%. All reactions performed in polypropylene 384-well plates. Each was a final volume of 0.02 mL. Assays were incubated with shaking for 1 hour at room temperature. Then the beads were pelleted and washed with wash buffer (1×PBS, 0.05% Tween 20) to remove displaced kinase and test compound. […] The qPCR protocol consisted of a 10 minute hot start at 95° C., followed by 35 cycles of 95° C. for 15 seconds, 60° C. for 1 minute.
Kds were determined using an 11-point 3-fold compound dilution series with three DMSO control points. […] The compounds were then diluted directly into the assays such that the final concentration of DMSO was 0.9%. The Kds were determined using a compound top concentration of 30,000 nM. Kd measurements were performed in duplicate.
Binding constants (Kds) were calculated with a standard dose-response curve using the Hill equation: […]
The Hill Slope was set to −1.
With `CNc1cc(-c2cn(C3CCOCC3)c3ncccc23)nc2c(C(=O)N[C@@H]3CCC[C@@]3(C)O)cnn12` [I-1221], the Kd (commonly the equilibrium constant for the complex coming apart) was 0.2 to 1 nM. In the case of `CNc1cc(-c2cn([C@H]3CCC[C@@H]3OC)c3ncccc23)nc2c(C(=O)NC3CCC3O)cnn12` (mixture of isomers) [I-1340, N-(2-hydroxycyclobutyl)-5-(1-((1S,2S)-2-methoxycyclopentyl)-1H-pyrrolo[2,3-b]pyridin-3-yl)-7-(methylamino)pyrazolo[1,5-a]pyrimidine-3-carboxamide] it was 1 to 10 nM; in that of `CNc1cc(Nc2cccn([C@H]3C[C@@H]3F)c2=O)nc2c(C(=O)N[C@H]3CC[C@@H]3O)cnn12` [I-1278], 0.2 to 1 nM; in that of `CNc1cc(Nc2cccn(C3CCOCC3)c2=O)nc2c(C(=O)N[C@H]3CCC[C@]3(C)O)cnn12` (stereo in doubt) [I-1254, N-(2-hydroxy-2-methylcyclopentyl)-7-(methylamino)-5-((2-oxo-1-(tetrahydro-2H-pyran-4-yl)-1,2-dihydropyridin-3-yl)amino)pyrazolo[1,5-a]pyrimidine-3-carboxamide], 0.2 to 1 nM. In the case of `CNc1cc(Nc2cccn(C3CC(F)(F)C3)c2=O)nc2c(C(=O)N[C@H]3COC[C@H]3O)cnn12` [I-1206] it was 1 to 10 nM; in that of `CNc1cc(-c2cn(C(C)C)c3ncc(F)cc23)nc2c(C(=O)N[C@@H]3CC[C@@H]3O)cnn12` [I-1386], 1 to 10 nM. In the case of `CNc1cc(Nc2cccn([C@H]3CCC[C@H](O)C3)c2=O)nc2c(C(=O)N[C@H]3CC[C@@H]3OC)cnn12` [I-1396] it was 0.2 to 1 nM; in that of `CNc1cc(Nc2cccn(C(C)C)c2=O)nc2c(C(=O)N[C@@H]3CCCC[C@@]3(C)O)cnn12` [I-1276], 0.2 to 1 nM.

On to `CNc1cc(Nc2cccn([C@H]3CC[C@H]3O)c2=O)nc2c(C(=O)N[C@H]3CC[C@@H]3OC)cnn12` [I-1345], for which the Kd was under 0.2 nM. To `CNc1cc(Nc2cc3cccnc3n2C2CC2)nc2c(C(=O)N[C@@H]3CC[C@H]3OC)cnn12` [I-1324] belongs under 0.2 nM; to `CNc1cc(Nc2cccn([C@@H]3CCC[C@H](O)C3)c2=O)nc2c(C(=O)N[C@H]3CC[C@@H]3OC)cnn12` [I-1191], under 0.2 nM; to `CNc1cc(Nc2cccn(C3CCOCC3)c2=O)nc2c(C(=O)N[C@H]3CCCC[C@]3(C)O)cnn12` [I-1197], under 0.2 nM. To `CNc1cc(Nc2cccn([C@H]3CCN(CCF)C3)c2=O)nc2c(C(=O)N[C@@H]3CC[C@H]3OC)cnn12` [I-1380] belongs under 0.2 nM; to `CNc1cc(-c2cn(CCCO)c3ncc(F)cc23)nc2c(C(=O)N[C@H]3CC[C@@H]3OC)cnn12` [I-1298], over 10 nM; to `CNc1cc(Nc2cccn3ccnc23)nc2c(C(=O)N[C@H]3CCC[C@]3(C)O)cnn12` [I-1316], 1 to 10 nM. To `CNc1cc(Nc2cccn3ccnc23)nc2c(C(=O)N[C@H]3CCC[C@]3(C)O)cnn12` [I-1239] belongs under 0.2 nM. As to `CNc1cc(Nc2cccn(C(C)C)c2=O)nc2c(C(=O)N[C@@H]3CCC[C@@](C)(O)C3)cnn12` [I-1243], the dissociation constant (Kd) is 1 to 10 nM. In the case of `CNc1cc(Nc2cccn([C@H]3CC[C@H]3O)c2=O)nc2c(C(=O)N[C@@H]3CC[C@H]3OC)cnn12` [I-1344] it was 0.2 to 1 nM. Regarding `CNc1cc(-c2cn(CCCO)c3ncc(F)cc23)nc2c(C(=O)N[C@H]3CC[C@@H]3OC)cnn12` [I-1230], the Kd is 0.2 to 1 nM. To `CNc1cc(Nc2cccn([C@@H]3CCC[C@@H]3O)c2=O)nc2c(C(=O)N[C@@H]3CC[C@H]3OC)cnn12` [I-1393] belongs under 0.2 nM; to `CNc1cc(Nc2cccn([C@@H]3CC[C@@H]3O)c2=O)nc2c(C(=O)N[C@H]3CC[C@@H]3OC)cnn12` [I-1351], under 0.2 nM; to `CNc1cc(-c2cn(C3CCOCC3)c3ncccc23)nc2c(C(=O)N[C@H]3CCC[C@]3(C)O)cnn12` [I-1336], 1 to 10 nM. In the case of `CNc1cc(-c2cn([C@@H]3CCCOC3)c3ncccc23)nc2c(C(=O)N[C@H]3COC[C@H]3O)cnn12` [I-1250, N-(4-hydroxytetrahydrofuran-3-yl)-7-(methylamino)-5-(1-((R)-tetrahydro-2H-pyran-3-yl)-1H-pyrrol[2,3-b]pyridin-3-yl)pyrazol[1,5-a]pyrimidine-3-carboxamide] it was 0.2 to 1 nM; in that of `CNc1cc(Nc2cccn([C@H]3C[C@@H]3F)c2=O)nc2c(C(=O)N[C@@H]3CC[C@H]3O)cnn12` [I-1279], under 0.2 nM; in that of `CNc1cc(-c2cn(C3CCOCC3)c3ncccc23)nc2c(C(=O)N[C@H]3CC[C@@H]3O)cnn12` [I-1405], 1 to 10 nM. `CNc1cc(Nc2cccn([C@@H]3C[C@H]3F)c2=O)nc2c(C(=O)NCC(C)(C)CO)cnn12` [I-1399] displayed a Kd of 1 to 10 nM. In the case of `CNc1cc(Nc2cccn(C(C)C)c2=O)nc2c(C(=O)N[C@H]3CCCC[C@]3(C)O)cnn12` [I-1277] it was under 0.2 nM. In the case of `CNc1cc(Nc2cccn([C@@H]3CCCOC3)c2=O)nc2c(C(=O)N[C@@H]3C[C@H]3OC)cnn12` [I-1269] it was 0.2 to 1 nM.

With `CNc1cc(Nc2cccn3ccnc23)nc2c(C(=O)N[C@H]3COC[C@H]3O)cnn12` [I-1313], the Kd is over 10 nM. In the case of `CNc1cc(-c2cn(C3CC3)c3ncccc23)nc2c(C(=O)N[C@H]3COC[C@H]3O)cnn12` [I-1356] it was under 0.2 nM; in that of `CNc1cc(Nc2cccn([C@@H]3CCN(CCF)C3)c2=O)nc2c(C(=O)N[C@H]3CC[C@@H]3OC)cnn12` [I-1332], 1 to 10 nM; in that of `CNc1cc(Nc2cccn([C@H]3CCC[C@@H](O)C3)c2=O)nc2c(C(=O)N[C@H]3CC[C@@H]3OC)cnn12` [I-1193], under 0.2 nM.

Regarding `CNc1cc(Nc2cccn(C(C)C)c2=O)nc2c(C(=O)N[C@@H]3CCC[C@@]3(C)O)cnn12` [I-1240], the Kd is under 0.2 nM. To `CNc1cc(Nc2cccn(-c3cccc(F)c3)c2=O)nc2c(C(=O)N[C@H]3COC[C@H]3O)cnn12` [I-1304] belongs 0.2 to 1 nM. In the case of `CNc1cc(Nc2cccn([C@@H]3C[C@H]3F)c2=O)nc2c(C(=O)N[C@@H]3CC[C@H]3O)cnn12` [I-1402] it was 1 to 10 nM; in that of `CNc1cc(-c2cn([C@@H]3CCCOC3)c3ncccc23)nc2c(C(=O)N[C@@H]3CC[C@H]3OC)cnn12` [I-1267], under 0.2 nM; in that of `CNc1cc(Nc2cccn([C@H]3C[C@@H]3OC)c2=O)nc2c(C(=O)NC3CC3)cnn12` [I-1271], under 0.2 nM. In the case of `CNc1cc(-c2cn([C@@H]3CCCOC3)c3ncccc23)nc2c(C(N)=O)cnn12` [I-1255] it was 0.2 to 1 nM; in that of `CNc1cc(Nc2cccn3ccnc23)nc2c(C(=O)N[C@@H]3COC[C@@H]3O)cnn12` [I-1261], 0.2 to 1 nM.

Compound `CNc1cc(Nc2cccn([C@H]3CCCOC3)c2=O)nc2c(C(=O)N[C@@H]3CCC[C@@](C)(OC)C3)cnn12` [I-1237] had a Kd of over 10 nM. To `CNc1cc(Nc2cccn([C@@H]3CCC[C@H](C#N)C3)c2=O)nc2c(C(=O)NC3CC3)cnn12` [I-1244] belongs under 0.2 nM. To `CNc1cc(Nc2cccn([C@H]3C[C@@H]3OC)c2=O)nc2c(C(=O)N[C@H]3CC[C@@H]3OC)cnn12` [I-1234] belongs 0.2 to 1 nM; to `CNc1cc(-c2cn([C@H]3CCCOC3)c3ncccc23)nc2c(C(=O)N[C@H]3COC[C@H]3O)cnn12` (mixture of isomers) [I-1251, N-(4-hydroxytetrahydrofuran-3-yl)-7-(methylamino)-5-(1-((S)-tetrahydro-2H-pyran-3-yl)-1H-pyrrolo[2,3-b]pyridin-3-yl)pyrazolo[1,5-a]pyrimidine-3-carboxamide], 1 to 10 nM; to `CNc1cc(Nc2cccn(C3CCOCC3)c2=O)nc2c(C(=O)N[C@@H]3CCC[C@@](C)(OC)C3)cnn12` (stereo in doubt) [I-1274, N-(3-methoxy-3-methylcyclohexyl)-7-(methylamino)-5-((2-oxo-1-(tetrahydro-2H-pyran-4-yl)-1,2-dihydropyridin-3-yl)amino)pyrazolo[1,5-a]pyrimidine-3-carboxamide], under 0.2 nM.

`CNc1cc(-c2cn(C(C)C)c3ncccc23)nc2c(C(=O)N[C@@H]3CC[C@]3(C)O)cnn12` [I-1326] showed a Kd of under 0.2 nM.

As to `CNc1cc(Nc2cccn3cnnc23)nc2c(C(=O)N[C@@H]3CC[C@H]3OC)cnn12` [I-1342], the Kd is under 0.2 nM. For the compound `CNc1cc(Nc2cccn(C3CC(F)(F)C3)c2=O)nc2c(C(=O)N[C@@H]3CCC[C@@](C)(O)C3)cnn12` [I-1208], the Kd is 1 to 10 nM. To `CNc1cc(Nc2cccn(C(C)C)c2=O)nc2c(C(=O)N[C@H]3CCC[C@]3(C)O)cnn12` [I-1241] belongs under 0.2 nM.
